Experimental findings from patent publication US20230066011A1, “PYRROLOPYRIMIDINE DERIVATIVE, AND PHARMACEUTICAL COMPOSITION FOR PREVENTING OR TREATING PROTEIN KINASE-RELATED DISEASE COMPRISING SAME AS ACTIVE INGREDIENT” (VORONOI CO., LTD., priority 2019, published 2023) are described below.

The target of one experiment is T1, human GST-DYRK1A (Homo sapiens, UniProt Q13627).
T1 construct: purified human GST-DYRK1A (full length, Thermo Scientifics) enzyme; purchased Thermo Scientifics
In words: GST-DYRK1A enzyme inhibition, ADP-Glo kinase assay. The experiment is classed as biochemical. The conditions noted are these: ATP 10 μM, GST-DYRK1A full length, read-out: DYRK1 IC50. A digest of the protocol:
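Full-length human GST-DYRK1A (10 ng) with 10 μM ATP and specific substrate in 40 mM Tris-HCl pH 7.4, 20 mM MgCl2, 0.5 mg/mL BSA, 50 μM DTT, 1 h at 25 °C. ADP formation read by ADP-Glo luminescence relative to solvent control; IC50 from three data sets.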

The next experiment relates to MDA-MB-231 cell line. In words: Inhibition of proliferation of MDA-MB-231 cancer cells (Cell Titer-Glo). The experiment is classed as cell-based. The conditions noted are these: Homo sapiens, 72 hours. A digest of the protocol: (§1)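 Step one, seed 2,000 cells per well in DMEM or RPMI. Step two, add compound at 11 final concentrations (10 to 0.000169 μM, 3-fold series) and culture for 72 hours. Step three, add Cell Titer-Glo, wait 10 min at room temperature, read luminescence and calculate GI50.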

The test system of another experiment is SHP-77. Put plainly: Inhibition of proliferation of SHP-77 cancer cells (Cell Titer-Glo). The conditions noted are these: Homo sapiens, SHP77, 72 hours. The experiment is classed as cell-based. The protocol:
To evaluate an inhibitory effect on the proliferation of cancer cells, each of an MDA-MB-231 cell line (Korean Cell Line Bank #30026) and an MDA-MB-468 cell line as triple-negative breast cancer cell lines, and SHP-77 (ATCC #CRL-2195) as a small-cell lung cancer cell line was cultured in DMEM (HyClone #SH30243) or an RPMI medium (HyClone #SH3027.01) to analyze a cell growth rate. More specifically, a cell line was plated on a 96-well flat bottom plate (Corning #3903) at a density of 2,000 cells/100 μL per well, and then treated with 11 concentrations of the Example compound, a solution of which was diluted 3-fold so that a final concentration of the compound was 10.000000, 3.333333, 1.111111, 0.370370, 0.123457, 0.041152, 0.013717, 0.004572, 0.001524, 0.000508, and 0.000169 μM. After 72 hours, each of the culture media was treated with 100 μL of Cell Titer-Glo (Promega G7573), and then cultured at room temperature for 10 minutes. Then, a degree of luminescence was measured using a microplate reader. A GI50 value was calculated from the measured degree of luminescence using Prism (Version 8.2 GraphPad) software.

The next experiment concerns the target LRRK2 (G2019S) (Homo sapiens, UniProt Q5S007, G2019S). Put plainly: LRRK2 G2019S enzyme inhibition, ADP-Glo kinase assay. The experiment is classed as biochemical. Set-up: purchased SignalChem L10-12GG. The settings on record: ATP 25 μM. Summed up:
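Purified human LRRK2 G2019S (16 ng) with 25 μM ATP and 0.2 μg substrate, 2 h at 25° C. in Tris-HCl pH 7.4, MgCl2, BSA, DTT buffer; compounds at 12 final concentrations, 50 μM down to 0.000001024 μM. ADP-Glo luminescence versus solvent control gave IC50.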

In another experiment the target is T2, human GST-CLK1 (Homo sapiens, UniProt P49759).
T2 construct: purified human GST-CLK1 (129-end, SignalChem) enzyme; purchased SignalChem
Put plainly: GST-CLK1 enzyme inhibition, ADP-Glo kinase assay. The experiment is classed as biochemical. The conditions noted are these: ATP 10 μM, GST-CLK1 129-end. A digest of the protocol:
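Human GST-CLK1 (129-end, 3 ng) reacted with substrate and 10 μM ATP for 1 h at 25° C in 40 mM Tris-HCl pH 7.4, 20 mM MgCl2, 0.5 mg/mL BSA, 50 μM DTT. ADP-Glo luminescence was normalised to solvent control; IC50 (nM) from 3 data sets.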

The test system of a further experiment is MDA-MB-468 cell line. In words: Inhibition of proliferation of MDA-MB-468 cancer cells (Cell Titer-Glo). The experiment is classed as cell-based. The settings on record: Homo sapiens, MDA-MB-468, 72 hours. A digest of the protocol:
as §1

The target in a further experiment is LRRK2 (Homo sapiens, UniProt Q5S007). In words: LRRK2 enzyme inhibition, ADP-Glo kinase assay. The settings on record: ATP 10 μM. Set-up: purchased Invitrogen PR8604B. The experiment is classed as biochemical. A digest of the protocol: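 Purified human LRRK2 (25 ng) with 10 μM ATP and 0.2 μg substrate in 40 mM Tris-HCl pH 7.4, 20 mM MgCl2, 0.5 mg/mL BSA, 50 μM DTT, 2 h at 25° C. ADP-Glo luminescence; 12-point compound series from 50 μM final; IC50 relative to solvent control.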
LRRK2, sequence (Q5S007 970-2527 limits assumed): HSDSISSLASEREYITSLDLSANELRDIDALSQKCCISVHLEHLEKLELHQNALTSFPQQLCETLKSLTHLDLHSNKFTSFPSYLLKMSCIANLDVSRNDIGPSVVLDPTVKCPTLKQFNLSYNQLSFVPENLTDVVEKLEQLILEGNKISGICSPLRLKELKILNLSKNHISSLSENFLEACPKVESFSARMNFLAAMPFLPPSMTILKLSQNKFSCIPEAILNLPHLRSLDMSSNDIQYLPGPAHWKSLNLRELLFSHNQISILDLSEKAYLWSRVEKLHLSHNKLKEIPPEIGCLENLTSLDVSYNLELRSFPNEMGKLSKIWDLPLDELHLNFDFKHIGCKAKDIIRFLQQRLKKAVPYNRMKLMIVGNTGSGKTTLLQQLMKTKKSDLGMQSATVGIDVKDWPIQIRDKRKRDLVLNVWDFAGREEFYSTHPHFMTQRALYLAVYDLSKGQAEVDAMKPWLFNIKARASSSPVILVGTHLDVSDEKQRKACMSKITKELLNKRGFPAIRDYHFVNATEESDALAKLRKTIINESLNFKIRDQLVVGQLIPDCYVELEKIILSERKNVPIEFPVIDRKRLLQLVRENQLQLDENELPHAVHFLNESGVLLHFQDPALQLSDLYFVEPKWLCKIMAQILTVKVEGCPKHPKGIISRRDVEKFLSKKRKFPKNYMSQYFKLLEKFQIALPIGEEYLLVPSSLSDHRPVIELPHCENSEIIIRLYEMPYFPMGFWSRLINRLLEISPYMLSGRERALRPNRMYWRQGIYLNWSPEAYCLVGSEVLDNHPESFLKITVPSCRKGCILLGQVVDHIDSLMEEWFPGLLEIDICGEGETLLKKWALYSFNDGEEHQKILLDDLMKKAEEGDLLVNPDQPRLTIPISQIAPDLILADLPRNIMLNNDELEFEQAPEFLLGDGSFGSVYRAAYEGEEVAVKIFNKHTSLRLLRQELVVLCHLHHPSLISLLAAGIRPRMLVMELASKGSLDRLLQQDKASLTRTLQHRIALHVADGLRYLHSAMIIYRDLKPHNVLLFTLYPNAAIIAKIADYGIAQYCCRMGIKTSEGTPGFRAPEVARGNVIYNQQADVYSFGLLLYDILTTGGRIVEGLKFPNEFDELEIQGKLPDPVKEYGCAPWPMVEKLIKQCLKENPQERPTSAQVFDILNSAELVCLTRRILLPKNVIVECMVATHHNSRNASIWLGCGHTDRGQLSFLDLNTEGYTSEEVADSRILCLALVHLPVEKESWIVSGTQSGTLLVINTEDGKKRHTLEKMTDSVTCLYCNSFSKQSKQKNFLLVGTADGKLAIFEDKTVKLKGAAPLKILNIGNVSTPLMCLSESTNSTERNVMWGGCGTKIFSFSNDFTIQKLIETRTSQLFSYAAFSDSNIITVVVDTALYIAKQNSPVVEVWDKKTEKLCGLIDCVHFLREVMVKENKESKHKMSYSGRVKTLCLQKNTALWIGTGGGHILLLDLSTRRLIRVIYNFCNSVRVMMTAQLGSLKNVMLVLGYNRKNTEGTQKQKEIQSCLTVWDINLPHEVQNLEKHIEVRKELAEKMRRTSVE

LRRK2 (G2019S), sequence (Q5S007 970-2527 G2019S limits assumed): as the sequence (Q5S007 970-2527 limits assumed) above, with G1050S counted along it
T2 sequence (P49759 129-484 limits assumed): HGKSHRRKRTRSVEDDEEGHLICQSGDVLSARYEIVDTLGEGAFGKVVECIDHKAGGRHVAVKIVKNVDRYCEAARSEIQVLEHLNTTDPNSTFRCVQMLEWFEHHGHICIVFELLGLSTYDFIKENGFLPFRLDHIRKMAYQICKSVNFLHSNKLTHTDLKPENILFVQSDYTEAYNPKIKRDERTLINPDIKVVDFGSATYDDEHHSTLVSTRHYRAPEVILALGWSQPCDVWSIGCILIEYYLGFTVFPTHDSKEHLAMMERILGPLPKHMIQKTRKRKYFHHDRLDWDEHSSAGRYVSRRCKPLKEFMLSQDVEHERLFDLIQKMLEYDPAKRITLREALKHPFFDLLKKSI

With `COc1cc(S(=O)(=O)N2CCOCC2)ccc1Nc1nc(NCC2CCCC2)c2c(C#N)c[nH]c2n1` [Example 80, 4-(cyclo(pentylmethyl)amino)-2-((2-methoxy-4-(morpholinosulfonyl)phenyl)amino)-7H-pyrrolo[2,3-d]pyrimidine-5-carbonitrile], the IC50 was 301 to 1000 nM on human GST-DYRK1A, under 100 nM on LRRK2 (G2019S) and 301 to 1000 nM against human GST-CLK1. The GI50 in the experiment with MDA-MB-231 cell line lay in the range of 101 to 300 nM; with SHP-77, 51 to 100 nM.

On to `CCCCNc1nc(Nc2ccc(S(=O)(=O)N3CCOCC3)cc2OC)nc2[nH]cc(C(F)(F)F)c12` [Example 207, N^4-butyl-N^2-(2-methoxy-4-(morpholinosulfonyl)phenyl)-5-(trifluoromethyl)-7H-pyrrolo[2,3-d]pyrimidine-2,4-diamine], for which the IC50 on human GST-DYRK1A and on human GST-CLK1 was 301 to 1000 nM each time. The GI50 with MDA-MB-231 cell line and in the experiment with SHP-77 was 301 to 1000 nM each time.

Regarding `COc1cc(S(=O)(=O)N2CCOCC2)ccc1Nc1nc(N[C@@H]2CCOC2)c2c(C#N)c[nH]c2n1` [Example 74, (R)-2-((2-methoxy-4-(morpholinosulfonyl)phenyl)amino)-4-((tetrahydrofuran-3-yl)amino)-7H-pyrrolo[2,3-d]pyrimidine-5-carbonitrile], the IC50 on human GST-DYRK1A and against human GST-CLK1 was 301 to 1000 nM each time. For the same molecule, the GI50 with MDA-MB-231 cell line and in the experiment on SHP-77 was 101 to 300 nM in each case.

Take `CC[C@H](C)Nc1nc(Nc2ccc(S(=O)(=O)N3CCOCC3)cc2OC)nc2[nH]cc(C#N)c12` [Example 68, (S)-4-(sec-butylamino)-2-((2-methoxy-4-(morpholinosulfonyl)phenyl)amino)-7H-pyrrolo[2,3-d]pyrimidine-5-carbonitrile]: the IC50 on human GST-DYRK1A and on human GST-CLK1 was 301 to 1000 nM throughout. Also, the concentration for 50% growth inhibition (GI50) in the experiment on MDA-MB-231 cell line and with SHP-77 was 101 to 300 nM in each case.

`COc1cc(S(=O)(=O)N2CCOCC2)ccc1Nc1nc(NCC2CCC2)c2c(C#N)c[nH]c2n1` [Example 79, 4-((cyclobutylmethyl)amino)-2-((2-methoxy-4-(morpholinosulfonyl)phenyl)amino)-7H-pyrrolo[2,3-d]pyrimidine-5-carbonitrile]: the IC50 at human GST-DYRK1A and against human GST-CLK1 was 301 to 1000 nM in each case. Moreover, the GI50 was 51 to 100 nM in the experiment with MDA-MB-231 cell line and under 50 nM in the experiment on SHP-77.

As to `COc1cc(S(=O)(=O)N2CCC(N3CCOCC3)CC2)ccc1Nc1nc(NCC2CCCC2)c2c(C(F)(F)F)c[nH]c2n1` [Example 195, N^4-(cyclopentylmethyl)-N^2-(2-methoxy-4-((4-morpholinopiperidin-1-yl)sulfonyl)phenyl)-5-(trifluoromethyl)-7H-pyrrolo[2,3-d]pyrimidine-2,4-diamine], the IC50 on human GST-DYRK1A and against human GST-CLK1 was 301 to 1000 nM in each case. The GI50 in the experiment on MDA-MB-231 cell line and in the experiment with SHP-77 was 301 to 1000 nM each time.

On to `COc1cc(S(=O)(=O)N2CCOCC2)ccc1Nc1nc(NCC2CCC2)c2c(C(F)(F)F)c[nH]c2n1` [Example 200, N^4-(cyclobutylmethyl)-N^2-(2-methoxy-4-(morpholinosulfonyl)phenyl)-5-(trifluoromethyl)-7H-pyrrolo[2,3-d]pyrimidine-2,4-diamine], for which the concentration for half-maximal inhibition (IC50) at human GST-DYRK1A and at human GST-CLK1 was 301 to 1000 nM throughout. For the same molecule, the GI50 in the experiment on MDA-MB-231 cell line and in the experiment on SHP-77 was 301 to 1000 nM each time.

Consider `COc1cc(S(=O)(=O)N2CCOCC2)ccc1Nc1nc(NCC2CC2)c2c(C(F)(F)F)c[nH]c2n1` [Example 203, N^4-(cyclopropylmethyl)-N^2-(2-methoxy-4-(morpholinosulfonyl)phenyl)-5-(trifluoromethyl)-7H-pyrrolo[2,3-d]pyrimidine-2,4-diamine], for which the results for the IC50 on human GST-DYRK1A and on human GST-CLK1 were 301 to 1000 nM and 101 to 300 nM, respectively. The GI50 in the experiment on MDA-MB-231 cell line and in the experiment on SHP-77 was 301 to 1000 nM in each case.

On to `COc1cc(S(=O)(=O)N2CCOCC2)ccc1Nc1nc(NCC2CCCC2)c2c(C(F)(F)F)c[nH]c2n1` [Example 194, N^4-(cyclopentylmethyl)-N^2-(2-methoxy-4-(morpholinosulfonyl)phenyl)-5-(trifluoromethyl)-7H-pyrrolo[2,3-d]pyrimidine-2,4-diamine], for which the IC50 at human GST-DYRK1A and against human GST-CLK1 was 301 to 1000 nM in each case. In addition, the GI50 in the experiment on MDA-MB-231 cell line and in the experiment with SHP-77 was 301 to 1000 nM in each case.

As for `COc1cc(S(=O)(=O)N2CCOCC2)ccc1Nc1nc(NCC(C)C)c2c(C(F)(F)F)c[nH]c2n1` [Example 192, N^4-isobutyl-N^2-(2-methoxy-4-(morpholinosulfonyl)phenyl)-5-(trifluoromethyl)-7H-pyrrolo[2,3-d]pyrimidine-2,4-diamine], the IC50 at human GST-DYRK1A was 101 to 300 nM; against human GST-CLK1, 301 to 1000 nM. Also, the GI50 with MDA-MB-231 cell line and with SHP-77 was 301 to 1000 nM throughout.

On to `COc1cc(S(=O)(=O)N2CCOCC2)ccc1Nc1nc(NC(C)C)c2c(C#N)c[nH]c2n1` [Example 66, 4-(isopropylamino)-2-((2-methoxy-4-(morpholinosulfonyl)phenyl)amino)-7H-pyrrolo[2,3-d]pyrimidine-5-carbonitrile], for which the GI50 in the experiment with MDA-MB-231 cell line and in the experiment with SHP-77 was under 50 nM throughout.

Consider `COc1cc(S(=O)(=O)N2CCOCC2)ccc1Nc1nc(NCC(C)C)c2c(C#N)c[nH]c2n1` [Example 65, 4-(isobutylamino)-2-((2-methoxy-4-(morpholinosulfonyl)phenyl)amino)-7H-pyrrolo[2,3-d]pyrimidine-5-carbonitrile], for which the concentration for half-maximal inhibition (IC50) at human GST-DYRK1A was 301 to 1000 nM; against LRRK2 (G2019S), under 100 nM; against human GST-CLK1 it was 301 to 1000 nM. Besides, the GI50 with MDA-MB-231 cell line and in the experiment on SHP-77 was under 50 nM in each case.

Take `CC[C@@H](C)Nc1nc(Nc2ccc(S(=O)(=O)N3CCC(N4CCOCC4)CC3)cc2OC)nc2[nH]cc(C#N)c12` [Example 86, (R)-4-(sec-butylamino)-2-((2-methoxy-4-((4-morpholinopiperidin-1-yl)sulfonyl)phenyl)amino)-7H-pyrrolo[2,3-d]pyrimidine-5-carbonitrile]: the IC50 at human GST-DYRK1A and at human GST-CLK1 was 301 to 1000 nM in each case. Also, the GI50 in the experiment with MDA-MB-231 cell line and in the experiment on SHP-77 was under 50 nM throughout.

`COc1cc(S(=O)(=O)N2CCC(N3CCOCC3)CC2)ccc1Nc1nc(NCC(C)C)c2c(C#N)c[nH]c2n1` [Example 84, 4-(isobutylamino)-2-((2-methoxy-4-((4-morpholinopiperidin-1-yl)sulfonyl)phenyl)amino)-7H-pyrrolo[2,3-d]pyrimidine-5-carbonitrile]: the IC50 on human GST-DYRK1A is 301 to 1000 nM; at LRRK2 (G2019S), under 100 nM; at human GST-CLK1 it was 301 to 1000 nM. The GI50 in the experiment with MDA-MB-231 cell line and in the experiment on SHP-77 was under 50 nM each time.

For the molecule `C=CCNc1nc(Nc2ccc(S(=O)(=O)N3CCOCC3)cc2OC)nc2[nH]cc(C#N)c12` [Example 362, 4-(allylamino)-2-((2-methoxy-4-(morpholino-sulfonyl)phenyl)amino)-7H-pyrrolo[2,3-d] pyrimidine-5-carbonitrile], the IC50 was 301 to 1000 nM on human GST-DYRK1A, under 100 nM against LRRK2, under 100 nM against LRRK2 (G2019S) and 301 to 1000 nM against human GST-CLK1. For the same molecule, the GI50 with MDA-MB-468 cell line and with MDA-MB-231 cell line was under 50 nM in each case.
